Here are results for five compounds from patent publication US7244712B2, “Aminoglycoside antibiotics and methods of using same” (priority 2004, dated 2007).

One assay has as its target 70S ribosome. The assay can be described thus: Fluorescence anisotropy binding to 70S ribosomes. The note with it: competition with CRP, E. coli ribosomes; for Kd: read-out: Dissociation constant (KD) with 70S ribosome. As for the experimental part:
(§1) After establishing the lack of stereospecificity in the binding of aminoglycosides to the A-site RNA constructs (FIG. 9A-C) where the binding affinity, KD, is about 0.1 μM to about 100 μM, the stereospecificity of aminoglycoside binding to intact ribosomes was determined. Both yeast and E. coli ribosomes were prepared and aminoglycoside binding was measured using fluorescence anisotropy methods. For example, fluorescence anisotropy methods recited in Wang, Y., and Rando, R. R. Chem. Biol. (1995) 2, 281-290; and Wang, Y., Hamasaki, K., and Rando, R. R. Biochemistry (1997) 36,768-779. CRP was used as the binding probe. […] Binding data reported herein for aminoglycoside compounds with eukaryotic yeast ribosomes are similar to binding data for said aminoglycoside compounds with ribosoimes in bacteria and with eukaryotic A-site rRNA constructs.
(§2) 5-Carboxytetramethylrhodamine-labeled paromomycin (CRP) and tobramycin (CRT) concentrations were determined spectroscopically at 550 nm using a molar extinction coefficient of 6.00×10 4 M −1 cm −1. Fluorescence anisotropy measurements were performed on a Perkin-Elmer LS-50B luminescence spectrometer equipped with a thermostat accurate to ±0.1° C. as indicated previously (Wang, Y., Hamasaki, K., & Rando, R. R. (1997) Biochemistry 36, 768-779). The tracer solution was excited at 550 nm and monitored at 580 nm. The integration time was 5 s. For every point, 6 measurements were taken, and their average values were used for calculation. Measurements were carried out in a buffer solution containing 150 mM NaCl, 5 mM KCl, 1 mM CaCl2, 1 mM MgCl2, and 20 mM HEPES (pH 7.5). Prior to measurements, RNA constructs were renatured by incubating in binding buffer {150 mM NaCl, 5 mM KCl, 1 mM CaCl2, 1 mM MgCl2, and 20 mM HEPES (pH 7.5)} for 3 minutes at 90° C. followed by slow cooling to 25° C.
(§3) Equation 1 was used for the determination of the dissociation constant (Kd) for the interactions between RNA or ribosome and CRP. A=A0+DA{(RNA)0+(CRP)0+Kd−({(RNA)0+(CRP)0+Kd}^2−4(RNA)0(CRP)0)½}/2 where A and A0 are the fluorescence anisotropy of CRP in the presence and absence of RNA, respectively, and DA is the difference between the fluorescence anisotropy of CRP in the presence of an extrapolated infinite concentration of RNA minus the fluorescence anisotropy in the absence of RNA. (RNA)0 and (CRP)0 are the initial concentrations of RNA and CRP, respectively.
(§4) Equation 2 is used for the calculation of the KD values in the competition binding assay. (aminoglycoside)0={KD(A−−A)/Kd(A−A0)+1}{(RNA)0−Kd(A−A0)/(A−−A)−(CRP)0(A−A0)/(A−−A)} where KD is the dissociation constant between the RNA and the aminoglycosides; (aminoglycoside)0 is the initial concentration of the aminoglycosides; AL is anisotropy of completely bound tracer. Both Kd and KD were determined by non-linear curve fitting using the equations described above, and are presented as mean values of three independent measurements.
The purification of E. coli (E600) 70S ribosomes was carried out according to the published procedure (Lazaro, E., van den Broek, L. A. G. M., Felix, A. S., Ottenheijm, H. C. J., Ballesta, J. P. G. (1991) Biochemistry 30, 9642-9648). E. coli MRE600 were grown for 12 h in 6L of LB medium (10 g trypton, 5 g yeast extract, 5 g NaCl per 1 L, pH 7.0) at 37° C. Crude ribosomes were precipitated from clarified supernatant by 4 h centrifugation at 25,000 rpm in Beckman SW 28 rotor at 4° C. The ribosome pellets were collected in 5 mL of buffer BR1, containing 10 mM HEPES, pH 7.5, 500 mM ammonium acetate, 100 mM magnesium chloride and 2.5 mM DTT. The ribosome suspension was centrifuged for 20 min at 15000 rpm to be clarified. The clarified sample was loaded over two layers of 20% and 40% sucrose in buffer BR1 and centrifuged for 18 hr at 19000 rpm in Beckman SW28 rotor at 4° C. […]

The target of a further assay is 80S ribosome. Description: Fluorescence anisotropy binding to 80S ribosomes. The note with it: competition with CRP, yeast ribosomes; read-out: Dissociation constant (KD) with 80S ribosome. On the set-up: species or system yeast (S. cerevisiae). As for the experimental part: as §1, §2, §3, §4
The purification of yeast 80S ribosomes from S. cerevisiae strain YSB 758 was carried out according to the published procedure (Verschoor, A., Warner, J. R., Srivastava, S., Grassucci, R. A., & Frank, J. (1997) Nucl. Acid Res. 26, 655-661). S. cerevisiea YSB 758 were grown for 12 hrs at 30° C. in 2L of YPD medium, containing: 20 g bacto peptone, 20 g glucose, 10 g yeast extract and 0.15 g tryptophan per 1 L, pH 7.0. The cells were lysed by 5-10 cycles of 1 min vigorous shaking with glass beads with a vortex, followed by cooling on ice. Clarified cell extract (about 9 mL total, used in 6 portions in 1.5 mL aliqouts) was carefully loaded on top of 2 mL of a cushion, composed of 10% sucrose and 5% ammonium sulfate dissolved in buffer YR1 (20 mM HEPES pH=7.4, 16 mM magnesium chloride, 100 mM potassium chloride, 5 mM DTT, and 0.5 mM EDTA). The ribosomes were collected by centrifugation in Beckman TL100.3 rotor at 75000 rpm for 3 h. The supernatants were carefully discarded and ribosomes were collected in buffer YR1. […]

For assay [1], the target named is bacterial 16S A-site rRNA construct (B), D-RNA. Description: Fluorescence anisotropy binding, D-RNA bacterial A-site decoding region construct B. The note with it: competition with CRP; read-out: Dissociation constant of aminoglycoside complex with D-B. From the text:
(§5) Experiments were designed to probe the stereospecificity of aminoglycoside binding to the RNA constructs shown in FIG. 9 because these small rRNA constructs mimic ribosomal decoding region RNA function. The three constructs shown include a bacterial 16S A-site rRNA construct (B) (27), its human counterpart (H), and an RNA aptamer (J6f1) selected to bind to the aminoglycoside tobramycin (12,15,16).
(§6) L-aminoglycoside binding to D-RNA sequences are energetically equivalent to binding the enantiotopic D-aminoglycoside to an L-RNA sequence. Initial binding experiments were carried out using enantiomerically pure L-RNA constructs, B, H, and J6f1 (FIG. 9A-C) and D-aminoglycoside compounds. Circular dichroism spectra of the purified constructs confirm the enantiomeric relationship of the corresponding D-RNA and L-RNA constructs (FIGS. 1A-C). The constructs were tested for aminoglycoside binding using the fluorescence anisotropy method described in Example 4. In these measurements, the fluorescent aminoglycoside CRP bearing a rhodamine chromaphore is used to monitor binding to the decoding region constructs (B and H) and fluorescent aminoglycoside CRT bearing a rhodamine chromaphore was used to monitor binding to RNA construct J6f1 (FIG. 9C). See, for example, Wang, Y. and Rando, R. R. Chem. Biol. (1995) 2, 281-290; Hamasaki, K., Killian, J. Cho, J., and Rando, R. R. Biochemistry (1998) 37, 656-663; and Cho, J. and Rando, R. R. (1999) Biochemistry 38, 8548-8554.
(§7) 5-Carboxytetramethylrhodamine-labeled paromomycin (CRP) and tobramycin (CRT) concentrations were determined spectroscopically at 550 nm using a molar extinction coefficient of 6.00×10 4 M −1 cm −1. Fluorescence anisotropy measurements were performed on a Perkin-Elmer LS-50B luminescence spectrometer equipped with a thermostat accurate to ±0.1° C. as indicated previously (Wang, Y., Hamasaki, K., & Rando, R. R. (1997) Biochemistry 36, 768-779). The tracer solution was excited at 550 nm and monitored at 580 nm. The integration time was 5 s. […]
(§8) Equation 1 was used for the determination of the dissociation constant (Kd) for the interactions between RNA or ribosome and CRP. A=A0+DA{(RNA)0+(CRP)0+Kd−({(RNA)0+(CRP)0+Kd}^2−4(RNA)0(CRP)0)½}/2 where A and A0 are the fluorescence anisotropy of CRP in the presence and absence of RNA, respectively, and DA is the difference between the fluorescence anisotropy of CRP in the presence of an extrapolated infinite concentration of RNA minus the fluorescence anisotropy in the absence of RNA. […]
(§9) Equation 2 is used for the calculation of the KD values in the competition binding assay. […] Both Kd and KD were determined by non-linear curve fitting using the equations described above, and are presented as mean values of three independent measurements.

The target in assay [2] is bacterial 16S A-site rRNA construct (B), L-RNA. Description: Fluorescence anisotropy binding, L-RNA bacterial A-site decoding region construct B. The note with it: competition with CRP; read-out: Dissociation constant of aminoglycoside complex with L-B.
From the text: as §5, §6, §7, §8, §9

Assay [3] has as its target human A-site decoding region construct (H), D-RNA. The assay can be described thus: Fluorescence anisotropy binding, D-RNA human A-site decoding region construct H. The note with it: competition with CRP; read-out: Dissociation constant of aminoglycoside complex with D-H.
From the text: as §5, §6, §7, §8, §9

Assay [4] addresses human A-site decoding region construct (H), L-RNA. Description: Fluorescence anisotropy binding, L-RNA human A-site decoding region construct H. The note with it: competition with CRP; read-out: Dissociation constant of aminoglycoside complex with L-H.
From the text: as §5, §6, §7, §8, §9

The target in another assay is RNA aptamer J6f1, L-RNA. Description: Fluorescence anisotropy binding, L-J6f1 tobramycin binding aptamer. The note with it: competition with CRT; read-out: Dissociation constant of aminoglycoside complex with L-J6f1.
From the text: as §5, §6, §2, §3, §9

A further assay has as its target RNA aptamer J6f1, D-RNA. Description: Fluorescence anisotropy binding, D-J6f1 tobramycin binding aptamer. The note with it: competition with CRT; read-out: Dissociation constant of aminoglycoside complex with D-J6f1.
From the text: as §5, §6, §7, §8, §9

Assay [5] relates to E. coli S30 extract, containing 70S ribosomes. Description: In vitro protein translation (CAT mRNA, 35S methionine incorporation). The assay is classed as biochemical. The note with it: quantitation of gel bands, read-out: IC50, concentration producing 50% inhibition of translation.
Description: Protein translation was performed from chloramphenicol acetyl transferase (CAT) mRNA. […] A commercial E. coli ribosomal suspension was supplemented with an E. coli extract containing the required elements for translation. These include translation factors, tRNAs, and aminoacyl tRNA synthases. Plasmid, T7 RNA polymerase and amino acids were added to the reaction mixture, and both transcription and translation steps were performed in the same vial. The effects of the aminoglycosides on the translation process were evaluated by measuring the incorporation of ^35S methionine in the translated chloramphenicol acetyl transferase protein.
In vitro translation was performed by using PROTEINscript™-PRO (Ambion) kit. […] Reaction mixtures contained appropriate concentrations of antibiotic (neomycin B, D- and L-neamine). The protein was translated from CAT mRNA, transcribed from control DNA template containing CAT gene under control of the T7 promotor. The product, ˜25 kDa chloramphenicol acetyl transferase, was labeled during translation with 1 μCi ^35S methionine (New England Nuclear) per reaction (no cold methionine was added).
Following the translation, the samples were analyzed by electrophoresis on 4-20% SDS mini-gels (Invitrogen) for 1.5 h at 120V. Gels were fixed with 40% methanol/10% acetic acid and exposed to Molecular Dynamics phosphoimager plates, which were read on a Personal FX phosphoimager (Bio-Rad) and quantitated using QuantityOne™ software.

Read-outs that look alike come from different tables or passages of the source.

Consider `NCC1OC(OC2C(N)CC(N)C(O)C2O)C(N)C(O)C1O` [6-Isomer of D-Neamine (3), 6-isomer of D-Neamine], for which the Kd at 70S ribosome stood at 30700 ± 1700 nM; on 80S ribosome, 22500 ± 1250 nM.

Consider `[H]/N=C(/N)N[C@H]1[C@H](O)[C@@H](O)[C@H](O[C@@H]2O[C@@H](C)[C@](O)(C=O)[C@H]2O[C@@H]2O[C@@H](CO)[C@H](O)[C@@H](O)[C@@H]2NC)[C@@H](N/C(N)=N\[H])[C@@H]1O` [Streptomycin], for which the “Dissociation constant (KD) with 70S ribosome” value at 70S ribosome is recorded as “did not exhibit measurable binding”. For the same compound, the Kd at 80S ribosome amounted to 30500 nM.

On to `NC[C@@H]1O[C@H](O[C@H]2[C@@H](O)[C@H](O[C@@H]3[C@@H](O)[C@H](N)C[C@H](N)[C@H]3O[C@H]3O[C@H](CO)[C@@H](O)[C@H](O)[C@H]3N)O[C@@H]2CO)[C@H](N)[C@@H](O)[C@@H]1O` [Paromomycin], for which the Kd amounted to 1650 ± 350 nM in [1]; 6380 ± 270 nM in [2]; 2200 ± 170 nM in [3]; 2760 ± 260 nM in assay [4]; 4600 ± 370 nM at RNA aptamer J6f1, L-RNA; 1410 ± 150 nM on 70S ribosome. Besides, on 80S ribosome, the Kd stood at 1970 ± 100 nM.

As to Neomycin, the Kd in assay [1] was determined as 52 ± 1.86 nM; in assay [2] it was 109 ± 4.6 nM; in [3], 260 ± 3.6 nM; in assay [4] it was 1410 ± 14 nM; at RNA aptamer J6f1, D-RNA, 5590 ± 1390 nM; on RNA aptamer J6f1, L-RNA, 360 ± 21 nM. Further, the Kd is ~100 nM at 70S ribosome (listed as neomycin B), 140 ± 38 nM on 70S ribosome and 110 ± 14 nM at 80S ribosome. The IC50 in assay [5] came to 15000 nM.

In the case of `NCC1OC(OC2C(O)C(N)CC(N)C2O)C(N)C(O)C1O` (single isomer, unassigned) [5-Isomer of L-Neamine (ent-2), 5-isomer of L-Neamine], the Kd was 1550 ± 110 nM on 70S ribosome and 1530 ± 120 nM at 80S ribosome.
